The results in this text go back to patent publication US8975259B2, “Compositions and methods for inhibiting G protein signaling” (University of Rochester, priority 2007, dated 2015).

The term Kd denotes the constant that tells how readily two partners part at equilibrium. By kon is commonly meant the rate constant with which the complex forms. The koff is the rate constant with which the complex falls apart.

Where two headings read alike, the source gives them in different places.

The test system of one experiment is PI3Kγ. Description: Gβ1γ2-dependent activation of purified p101/p110 PI3Kγ. The format is biochemical. The note with it: for effect on Gβ1γ2-dependent activation of PI3Kγ: result in words. The protocol:
(§1) Purified PLCβ2 (0.25 ng) was assayed in the presence (▴) or absence (▪) of 100 nM purified Gβ1γ2. […] Assays contained 10 ng of purified p101/p110 PI3Kγ heterodimer with or without 100 nM purified Gβ1γ2. Left panel: (▴) 100 nM Gβ1γ2 or (▪) no βγ. […] M119 or M201 and 25 nM purified GRK2 were added simultaneously to 250 nM biotinylated Gβ1γ2 (bGβ1γ2) immobilized on streptavidin agarose. GRK2 was detected with antibody to GRK2. Data are representative (mean ±SEM, except D) repeated at least three times each. […] 30 nM bGβ1γ2 was incubated with either 30 nM PLCβ2 or PLCβ3 in the presence or absence of M119 or M201 for 16 h at 4° C. before precipitation with avidin agarose and detection with PLCβ2,or Gβ antibodies. […] Same as 4E with PLCβ3.
(§2) Nevertheless, M119 and M201 were tested in in vitro reconstitution assays of Gβγ-dependent activation of PLCβ2, PLCβ3 and PI3Kγ and binding to GRK2. […] These are only two of multiple diverse compounds identified, indicating potential for multiple modes of Gβγ-dependent target modulation by these small molecules.

The next experiment has as its system PLCβ2. Put plainly: Gβ1γ2-dependent activation of purified PLCβ2. The class given is biochemical. As to the method: as §1
(§3) The ability of NSC119910 analogs to selectively modulate activation PLC-β2 and -β3 was analyzed. In this assay, PLC-β2 and PLC-β3 were purified and PLC enzymatic activity was measured in the presence or absence of purified βy and in the presence or absence of analog.
as §2

For experiment [1], the target named is T1, Gβ1γ2 (UniProt P54311+P63212). Description: Competition phage ELISA: inhibition of SIGK-phage binding to immobilized biotinylated Gβ1γ2. Also on record: made in house; host or cells: Sf9 insect cells (baculovirus; co-expressed with BirA and (His)6-Gαi1, from which βγ was eluted); species or system rat. The protocol: Phage ELISA assays used to assess peptide binding to wild-type and mutant b-βγ were performed according to standard methods (Smrcka and Scott (2002) Methods Enzymol. 344:557-76). Briefly, 1 μg streptavidin was immobilized in the well of a […] overnight at 4° C. The wells were blocked with 100 μL of 2% bovine serum albumin (BSA) in Tris-buffered saline (TBS) for 1 hour at 4° C. followed by three washes of IX TBS/0.5% TWEEN®. […] The wells were washed, followed by the addition of IxIO^6 to IxIO^10 phage particles and incubated at 4° C. for 3 hours. The wells were then washed six times with TBS/0.5% TWEEN® followed by addition of 40 μL of 1:5000 dilution of anti-M13 antibody (Pharmacia, Uppsala, Sweden) and incubated at room temperature for 1 hour. The wells were washed, followed by the addition of 40 μL of (2,2′-Azino-bis (3-ethylbenzthiazoline)-6-sulfonic acid (ABTS) and the colorimetric reaction was monitored at 405 nm. Nonspecific binding was subtracted for each reading.
A phage ELISA assay was used to determine whether small molecules identified in the computational screen could interact with the Gβy protein interaction surface. […] The screen was based on a reduction in the optical density (OD) of wells containing Gβγ subunits and phage. […] Three background wells contained no βy subunits.
As disclosed herein, biotinylated Gβy subunits were immobilized on the surface of a 96-well plate coated with streptavidin, phage displaying Gβγ-binding peptides were subsequently added and binding in the presence and absence of test compounds detected with an anti-phage antibody.
The phage ELISA assay was used to rapidly screen the ability of compounds to bind to the protein interaction “hot spot” based on the method of Scott et. al (Scott et al., 2001). This assay is performed in the presence of detergent (0.5% Tween) to eliminate non-specific compound aggregation artifacts.
Compounds/DMSO and 0.1×10^10 phage were added simultaneously and subsequently incubated for 1 h at room temperature. Plates were then washed with 1× Tris-buffered saline/0.5% Tween 20 and incubated with anti-M13, HRP-conjugated antibody (Amersham, Chalfont St. Giles, Buckinghamshire, UK). Phage binding was determined by monitoring A405 upon addition of 2,2′-azino-bis(3-ethylbenzothiazoline-6-sulfonic acid) (Sigma Aldrich).
For orientation: An ELISA detects its analyte on a solid surface through an enzyme-linked reagent.

The test system of a further experiment is PLCβ3. Description: Gβ1γ2-dependent activation of purified PLCβ3. Particulars: for effect on Gβ1γ2-dependent activation of PLCβ3: result in words. The format is biochemical. As to the method:
as §1, §3, §2

Experiment [2] has as its target T1, Gβ1γ2. Put plainly: Surface plasmon resonance direct binding to Gβ1γ2. Also on record: made in house; host or cells: Sf9 insect cells (baculovirus). The note with it: for kon: read-out: association rate constant (kon, ka); for koff: read-out: dissociation rate constant (koff, kd). From the text: To understand the protein binding characteristics of compounds a surface plasmon resonance (SPR) method was developed for monitoring direct small molecule binding to G βγ subunits using a Reichert SPR instrument. In addition to binding affinity, binding kinetics can be obtained from this analysis. […] To obtain the data in herein, 3000 refractive index units (RIU) of Gβ1γ2 was immobilized to maximize detection of small molecule binding (Karlsson et al., 2006; Markgren et al., 2001; Rich et al., 2001) and compounds were injected at 75 μl/min and changes in bulk refractive index were accounted for in a reference flow cell. […] This method is used to analyze compound binding kinetics and calculate equilibrium binding constants to test the mechanisms of action and selectivity of various “hot spot” binding compounds.
Direct binding of “hot spot” binding small molecules was assessed using the Reichert SR7000 Surface Plasmon Resonance dual chamber instrument equipped with an autosampler (Reichert, Depew, N.Y.). To activate the sensor chip surface, a mixture of 0.1 M 1-ethyl-3-(3-dimethylaminopropyl) carbodiimide hydrochloride and 0.05 M N-hydroxysuccinimide was injected (flow rate 5 μl/min) over the sensor surface. Streptavidin (100 μg/ml; prepared in 20 mM sodium acetate buffer, pH 5.5) was coupled to the sensor chip surface followed by quenching the remaining activated carboxyl groups with 1 M ethanolamine, pH 8.5. bGβ1γ2 was conjugated to the streptavidin-coated chip in running buffer (50 mM HEPES, pH 7.6, 1 mM EDTA, 100 mM NaCl, 0.1% C12E10, and 1 mM dithiothreitol) to achieve 2000 micro-refractive index units. A second reference cell was treated similarly, but bGβ1γ2 was excluded. Direct binding of small molecules was tested out at room temperature with a flow rate of 75 μl/min. Compounds were prepared in running buffer and injected for 10 min followed by a dissociation phase of 10 min. The obtained sensorgrams were corrected for nonspecific background by running the same experiment in series over an identical sensor surface with immobilized streptavidin, blocked with biotin, without bGβγ. […] Best fit kinetic parameters were determined using kinetic titration model and ClampXP ver. 3.5, which accounts for incomplete dissociation between injections (Karisson et al., 2006).
Background: Surface plasmon resonance follows binding to a sensor surface in real time, without labels.

As for `O=C(O)C1CCCCC1c1c2ccc(=O)c(O)c-2oc2c(O)c(O)ccc12` (centres unmarked) [Compound M119, cyclohexanecarboxylic acid, 2-(4,5,6-trihydroxy-3-oxo-3H-xanthen-9-yl)-(9cl)], the IC50 in the experiment on PI3Kγ (Table 19, effector IC50, read-out: PI 3-Kg) worked out at 8 µM; in the experiment with PLCβ2 (read-out: IC50 for attenuation of Gβ1γ2-dependent activation of PLCβ2), 3000 nM; on Gβ1γ2 [1] (ELISA, Table 19), 0.2 µM; at Gβ1γ2 [1] (IC50 μM, Table 18, compounds identified in Elisa screen), 0.2 µM; on Gβ1γ2 [1] (IC50, Table 8, last row), 0.1 µM; at Gβ1γ2 [1] (IC50 in phage ELISA (SIGK competition)), 0.2 µM. The IC50 in the experiment with PLCβ3 (Table 19, effector IC50, read-out: PLCb3) amounted to 3000 nM. In addition, the “effect on Gβ1γ2-dependent activation of PI3Kγ” value in the experiment with PI3Kγ was “attenuated”. Also, the “effect on Gβ1γ2-dependent activation of PLCβ3” value in the experiment with PLCβ3 was “attenuated”. In addition, the affinity at Gβ1γ2 [2], expressed as Kd, was 100 nM. Moreover, the kon on Gβ1γ2 [2] (SPR) stood at 2000 M⁻¹ s⁻¹. Moreover, the koff on Gβ1γ2 [2] (SPR) is 0.0002 s⁻¹.
On to `O=C(O)c1ccccc1-c1c2ccc(=O)c(O)c-2oc2c(O)c(O)ccc12` (racemic) [Gallein], for which the IC50 on Gβ1γ2 [1] was 0.2 µM. Also, the Kd on Gβ1γ2 [2] (SPR, read-out: Kd) is roughly 400 nM. For the same compound, at Gβ1γ2 [2] (SPR), the kon turned out to be 1130 ± 17 M⁻¹ s⁻¹ and the koff is 0.00043 s⁻¹.
Turning to `O=C(O)C1CCCCC1c1c2ccc(=O)cc-2oc2cc(O)ccc12` (centres unmarked) [Compound M119B], the “effect on Gβ1γ2-dependent activation of PI3Kγ” value in the experiment on PI3Kγ is given as “did not have effects”. Also, the “effect on Gβ1γ2-dependent activation of PLCβ2” value in the experiment with PLCβ2 (result in words) is “did not have effects”. Besides, the “apparent affinity for Gβ1γ2 relative to M119” value on Gβ1γ2 [1] is 1/1000. For the same compound, the “effect on Gβ1γ2-dependent activation of PLCβ3” value in the experiment on PLCβ3 is on record as “did not have effects”.
